Results reported in ChEMBL document CHEMBL1145891, “Design and synthesis of trans-3-(2-(4-((3-(3-(5-methyl-1,2,4-oxadiazolyl))- phenyl)carboxamido)cyclohexyl)ethyl)-7-methylsulfonyl-2,3,4,5-tetrahydro-1H-3-benzazepine (SB-414796): a potent and selective dopamine D3 receptor antagonist” (J Med Chem, 2003).

Legend:
D(3) dopamine receptor = D(3) dopamine receptor (Homo sapiens, UniProt P35462); experiment: Binding affinity against human Dopamine receptor D3 expressed in CHO cells by using [125I]iodosulpiride as radioligand; type: cell-based
D(2) dopamine receptor = D(2) dopamine receptor (Homo sapiens, UniProt P14416); experiment: Binding affinity against human Dopamine receptor D2 expressed in CHO cells by using [125I]iodosulpiride as radioligand; type: cell-based
Chain of D(2) dopamine receptor (P14416 whole entry): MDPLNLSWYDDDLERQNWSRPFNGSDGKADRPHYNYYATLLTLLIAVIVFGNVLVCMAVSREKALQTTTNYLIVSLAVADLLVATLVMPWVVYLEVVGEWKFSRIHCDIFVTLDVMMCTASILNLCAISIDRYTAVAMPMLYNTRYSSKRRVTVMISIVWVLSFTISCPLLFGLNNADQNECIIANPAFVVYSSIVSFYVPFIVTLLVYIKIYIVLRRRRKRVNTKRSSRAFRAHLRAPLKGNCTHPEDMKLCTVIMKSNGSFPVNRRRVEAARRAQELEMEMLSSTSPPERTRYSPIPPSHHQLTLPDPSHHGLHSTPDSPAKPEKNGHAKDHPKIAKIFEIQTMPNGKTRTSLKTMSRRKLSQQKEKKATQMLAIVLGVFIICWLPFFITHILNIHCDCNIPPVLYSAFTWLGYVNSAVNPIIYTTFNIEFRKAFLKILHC

Chain of D(3) dopamine receptor (P35462 whole entry): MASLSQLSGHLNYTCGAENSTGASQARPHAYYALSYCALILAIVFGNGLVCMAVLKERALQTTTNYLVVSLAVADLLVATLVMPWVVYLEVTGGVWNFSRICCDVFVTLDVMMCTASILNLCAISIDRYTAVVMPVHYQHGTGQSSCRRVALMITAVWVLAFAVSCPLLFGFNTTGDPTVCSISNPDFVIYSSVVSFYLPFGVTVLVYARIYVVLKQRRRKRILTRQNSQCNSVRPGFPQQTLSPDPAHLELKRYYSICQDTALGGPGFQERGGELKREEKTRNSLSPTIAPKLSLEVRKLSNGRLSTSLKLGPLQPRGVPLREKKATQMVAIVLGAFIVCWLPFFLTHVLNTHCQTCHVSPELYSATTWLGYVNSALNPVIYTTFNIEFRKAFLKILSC

Question: How did the Ki (D(3) dopamine receptor) turn out when `COc1ccc(/C=C/C(=O)N[C@H]2CC[C@H](CCN3CCc4ccc(OS(C)(=O)=O)cc4CC3)CC2)cc1` was run?
Answer: 1 nM

Question: What about the Ki (D(2) dopamine receptor) of the same compound?
Answer: 31.6 nM

Question: How did the Ki (D(3) dopamine receptor) turn out when `Cc1cnc(-c2cccc(C(=O)N[C@H]3CC[C@H](CCN4CCc5ccc(S(C)(=O)=O)cc5CC4)CC3)c2)o1` was run?
Answer: 7.94 nM

Question: What about the Ki (D(2) dopamine receptor) of the same compound?
Answer: 631 nM

Question: Which Ki (D(3) dopamine receptor) does the source give for `Cc1cc(C(=O)N[C@H]2CC[C@H](CCN3CCc4ccc(OS(C)(=O)=O)cc4CC3)CC2)c2ccccc2n1` here?
Answer: 20 nM

Question: And the Ki (D(2) dopamine receptor)?
Answer: 631 nM

Question: With `Cc1ccc2c(C(=O)N[C@H]3CC[C@H](CCN4CCc5ccc(S(C)(=O)=O)cc5CC4)CC3)ccc(F)c2n1` as the compound, how does the Ki (D(3) dopamine receptor) read?
Answer: 3.16 nM

Question: And the Ki (D(2) dopamine receptor)?
Answer: 794 nM

Question: `CS(=O)(=O)Oc1ccc2c(c1)CCN(CC[C@H]1CC[C@H](NC(=O)/C=C/c3ccc(F)cc3)CC1)CC2` was tested. Which Ki (D(3) dopamine receptor) did it give?
Answer: 0.794 nM

Question: What about the Ki (D(2) dopamine receptor) of the same compound?
Answer: 63.1 nM

Question: For `CS(=O)(=O)c1ccc2c(c1)CCN(CC[C@H]1CC[C@H](NC(=O)/C=C/c3ccc(C#N)cc3)CC1)CC2`, which Ki (D(3) dopamine receptor) is on record?
Answer: 2 nM

Question: And the Ki (D(2) dopamine receptor)?
Answer: 126 nM

Question: Which Ki (D(3) dopamine receptor) does the source give for `COc1cccc(/C=C/C(=O)N[C@H]2CC[C@H](CCN3CCc4ccc(OS(C)(=O)=O)cc4CC3)CC2)c1` here?
Answer: 2 nM

Question: What about the Ki (D(2) dopamine receptor) of the same compound?
Answer: 63.1 nM

Question: Which Ki (D(3) dopamine receptor) does the source give for `CS(=O)(=O)c1ccc2c(c1)CCN(CC[C@H]1CC[C@H](NC(=O)/C=C/c3c(F)cccc3F)CC1)CC2` here?
Answer: 2.51 nM

Question: What about the Ki (D(2) dopamine receptor) of the same compound?
Answer: 398 nM

Question: For `CS(=O)(=O)c1ccc2c(c1)CCN(CC[C@H]1CC[C@H](NC(=O)/C=C/c3ccccc3C#N)CC1)CC2`, which Ki (D(3) dopamine receptor) is on record?
Answer: 1.58 nM

Question: And the Ki (D(2) dopamine receptor)?
Answer: 158 nM

Question: `CS(=O)(=O)Oc1ccc2c(c1)CCN(CC[C@H]1CC[C@H](NC(=O)/C=C/c3cccc(F)c3)CC1)CC2` was tested. Which Ki (D(3) dopamine receptor) did it give?
Answer: 1.26 nM

Question: `CS(=O)(=O)c1ccc2c(c1)CCN(CC[C@H]1CC[C@H](NC(=O)/C=C/c3cccc(F)c3)CC1)CC2` was tested. Which Ki (D(3) dopamine receptor) did it give?
Answer: 1.58 nM

Question: And the Ki (D(2) dopamine receptor)?
Answer: 126 nM

Question: Which results are given for `CS(=O)(=O)c1ccc2c(c1)CCN(CC[C@H]1CC[C@H](NC(=O)/C=C/c3cccc(C#N)c3)CC1)CC2`?
Answer: Ki (D(3) dopamine receptor): 2 nM; Ki (D(2) dopamine receptor): 158 nM

Question: Which Ki (D(3) dopamine receptor) does the source give for `CS(=O)(=O)Oc1ccc2c(c1)CCN(CC[C@H]1CC[C@H](NC(=O)/C=C/c3ccccc3F)CC1)CC2` here?
Answer: 1.26 nM

Question: How did the Ki (D(3) dopamine receptor) turn out when `CS(=O)(=O)c1ccc2c(c1)CCN(CC[C@H]1CC[C@H](NC(=O)/C=C/c3ccccc3F)CC1)CC2` was run?
Answer: 1.26 nM

Question: And the Ki (D(2) dopamine receptor)?
Answer: 126 nM

Question: `CS(=O)(=O)c1ccc2c(c1)CCN(CC[C@H]1CC[C@H](NC(=O)/C=C/c3cc(F)cc(F)c3)CC1)CC2` was tested. Which Ki (D(3) dopamine receptor) did it give?
Answer: 2 nM

Question: And the Ki (D(2) dopamine receptor)?
Answer: 251 nM

Question: Which Ki (D(3) dopamine receptor) does the source give for `CS(=O)(=O)c1ccc2c(c1)CCN(CC[C@H]1CC[C@H](NC(=O)/C=C/c3ccc(F)cc3)CC1)CC2` here?
Answer: 1 nM

Question: What about the Ki (D(2) dopamine receptor) of the same compound?
Answer: 79.4 nM

Question: How did the Ki (D(3) dopamine receptor) turn out when `COc1ccccc1/C=C/C(=O)N[C@H]1CC[C@H](CCN2CCc3ccc(OS(C)(=O)=O)cc3CC2)CC1` was run?
Answer: 1.26 nM

Question: What about the Ki (D(2) dopamine receptor) of the same compound?
Answer: 100 nM

Question: `CS(=O)(=O)Oc1ccc2c(c1)CCN(CC[C@H]1CC[C@H](NC(=O)c3cccc(-n4cccc4)c3)CC1)CC2` was tested. Which Ki (D(3) dopamine receptor) did it give?
Answer: 3.16 nM

Question: What about the Ki (D(2) dopamine receptor) of the same compound?
Answer: 251 nM

Question: For `Cc1ncc(-c2cccc(C(=O)N[C@H]3CC[C@H](CCN4CCc5ccc(OS(C)(=O)=O)cc5CC4)CC3)c2)o1`, which Ki (D(3) dopamine receptor) is on record?
Answer: 1.26 nM

Question: What about the Ki (D(2) dopamine receptor) of the same compound?
Answer: 200 nM

Question: With `Cc1ccc2c(C(=O)N[C@H]3CC[C@H](CCN4CCc5ccc(OS(C)(=O)=O)cc5CC4)CC3)cccc2n1` as the compound, how does the Ki (D(3) dopamine receptor) read?
Answer: 1.26 nM

Question: And the Ki (D(2) dopamine receptor)?
Answer: 200 nM

Question: Which Ki (D(3) dopamine receptor) does the source give for `Cc1ccc2c(C(=O)N[C@H]3CC[C@H](CCN4CCc5ccc(S(C)(=O)=O)cc5CC4)CC3)cccc2n1` here?
Answer: 3.98 nM

Question: What about the Ki (D(2) dopamine receptor) of the same compound?
Answer: 316 nM

Question: Which Ki (D(3) dopamine receptor) does the source give for `CS(=O)(=O)Oc1ccc2c(c1)CCN(CC[C@H]1CC[C@H](NC(=O)c3cccc(-c4ncccn4)c3)CC1)CC2` here?
Answer: 2 nM

Question: And the Ki (D(2) dopamine receptor)?
Answer: 316 nM

Question: For `Cc1ncc(-c2cccc(C(=O)N[C@H]3CC[C@H](CCN4CCc5ccc(S(C)(=O)=O)cc5CC4)CC3)c2)o1`, which Ki (D(3) dopamine receptor) is on record?
Answer: 6.31 nM

Question: And the Ki (D(2) dopamine receptor)?
Answer: 631 nM

Question: Which results are given for `Cn1nccc1-c1cccc(C(=O)N[C@H]2CC[C@H](CCN3CCc4ccc(S(C)(=O)=O)cc4CC3)CC2)c1`?
Answer: Ki (D(3) dopamine receptor): 3.16 nM; Ki (D(2) dopamine receptor): 501 nM

Question: With `Cc1coc(-c2cccc(C(=O)N[C@H]3CC[C@H](CCN4CCc5ccc(OS(C)(=O)=O)cc5CC4)CC3)c2)n1` as the compound, how does the Ki (D(3) dopamine receptor) read?
Answer: 3.16 nM

Question: What about the Ki (D(2) dopamine receptor) of the same compound?
Answer: 200 nM

Question: What does the source list for `Cc1nc(-c2cccc(C(=O)N[C@H]3CC[C@H](CCN4CCc5ccc(OS(C)(=O)=O)cc5CC4)CC3)c2)no1`?
Answer: Ki (D(3) dopamine receptor): 2.51 nM; Ki (D(2) dopamine receptor): 200 nM

Question: Which results are given for `Cc1cc(-c2cccc(C(=O)N[C@H]3CC[C@H](CCN4CCc5ccc(S(C)(=O)=O)cc5CC4)CC3)c2)on1`?
Answer: Ki (D(3) dopamine receptor): 3.98 nM; Ki (D(2) dopamine receptor): 501 nM

Question: Which Ki (D(3) dopamine receptor) does the source give for `CS(=O)(=O)Oc1ccc2c(c1)CCN(CC[C@H]1CC[C@H](NC(=O)c3cccc4ccccc34)CC1)CC2` here?
Answer: 2.51 nM

Question: And the Ki (D(2) dopamine receptor)?
Answer: 316 nM

Question: How did the Ki (D(3) dopamine receptor) turn out when `CS(=O)(=O)Oc1ccc2c(c1)CCN(CC[C@H]1CC[C@H](NC(=O)c3cccc4ncccc34)CC1)CC2` was run?
Answer: 2 nM

Question: What about the Ki (D(2) dopamine receptor) of the same compound?
Answer: 200 nM

Question: For `Cc1cc(-c2cccc(C(=O)N[C@H]3CC[C@H](CCN4CCc5ccc(OS(C)(=O)=O)cc5CC4)CC3)c2)on1`, which Ki (D(3) dopamine receptor) is on record?
Answer: 2 nM

Question: What about the Ki (D(2) dopamine receptor) of the same compound?
Answer: 158 nM

Question: `Cc1cnc(-c2cccc(C(=O)N[C@H]3CC[C@H](CCN4CCc5ccc(OS(C)(=O)=O)cc5CC4)CC3)c2)o1` was tested. Which Ki (D(3) dopamine receptor) did it give?
Answer: 3.16 nM

Question: What about the Ki (D(2) dopamine receptor) of the same compound?
Answer: 316 nM
